The test system of assay [1] is cell-free peptide synthesis system derived from Escherichia coli. The experiment in a line: Cell-free biosynthesis of the integrin binding peptide fusion protein with tag, reaction time 10 minutes, ELISA. The settings on record: for Biosynthesis amount of fusion protein: relative value, control without tag = 1, reaction time 10 minutes, fusion protein SEQ ID NO: 5, SKIK encoded by SEQ ID NO: 110. The format is biochemical. The procedure:
The cell-free biosynthesis of the polypeptide was carried out in a translation solution containing a template DNA, PUREfrex 2.0 (GeneFrontier, PF201-0.25-5), and Aminoacyl tRNA (1). 1.25 μL (62.5 ng) of the template DNA prepared to 50 ng/μL, 2.5 μL of PUREfrex 2.0 Solution I, 0.25 μL of Solution II, 0.5 μL of Solution III, and 0.5 μL of Aminoacyl tRNA (1) were mixed and mixture was subjected to a reaction at 37° ° C. for 1 hour.
The amount of the biosynthesized polypeptide was measured by ELISA. 50 ng of Recombinant Human Integrin αVβ3 (R&D systems, 3050-AV-050) was immobilized in each well of a 96-well plate and blocked with Blocker Casein in PBS (Thermo, 37528), and then a cell-free biosynthesis solution diluted with Can Get Signal Immunoreaction Enhancer Solution I (TOYOBO, NKB-101) containing 5 mmol/L MgCl2 was added thereto, and the mixture was subjected to a reaction at room temperature for 3 hours. After washing with 5 mmol/L MgCl2/0.05% Tween 20-containing phosphate buffered saline (PBS), an anti-Myc antibody (Cell Signaling, 14038S) diluted with Can Get Signal Immunoreaction Enhancer Solution II (TOYOBO, NKB-101) was added thereto, and the mixture was subjected to a reaction at room temperature for 2 hours. After washing with PBS containing 5 mmol/L MgCl2/0.05% Tween 20, Super Signal ELISA Femto Substrate (Thermo, 37075) was added thereto, and the luminescence was measured. The amount of the fusion protein in the cell-free biosynthesis solution was calculated based on a calibration curve created from the fusion protein having a known concentration. The luminescence measurement was performed twice, and the average value of the amounts of the fusion protein was calculated. Table 2-1 and Table 2-2 show relative values of the biosynthesis amounts of respective fusion proteins in a case where the amount of the fusion protein of the control example was set to the reference value 1.
As a comparative control, a SKIK tag represented by SEQ ID NO: 107 was selected. The polypeptide to be biosynthesized is the fusion protein containing the integrin binding peptide, as in Example 1.
Using a template DNA including DNA sequences (SEQ ID NOs: 73 to 98) encoding VKKX tags represented by SEQ ID NOs: 27 to 52 produced in Example 1, and a DNA sequence (SEQ ID NO: 110) encoding a SKIK tag represented by SEQ ID NO: 107 produced in Example 2, the biosynthesis reaction was performed in the same manner as in Example 1 by setting the reaction time to 10 minutes. In the same manner in Example 1, the fusion protein was expressed by the cell-free peptide synthesis system and quantified by ELISA. The measurement was performed twice, and the average value of the amounts of the fusion protein was calculated. […] As control example used in Example 1, the control example of the reference value 1 has a form in which the base sequence (SEQ ID NO: 6) encoding the fusion protein is arranged immediately after the start codon ATG.

The test system is the same in assay [2]. In words: Cell-free biosynthesis of DHFR partial sequence-HiBiT fusion proteins with tag, 10 minutes, Nano Glo HiBiT quantification. The format is biochemical. The text has this: Regarding the effect of increasing the biosynthesis amount of the polypeptide by the tag (VKKTKT tag) represented by SEQ ID NO: 27, the influence of the length of the polypeptide to be synthesized was examined. The polypeptide to be biosynthesized is a fusion protein containing a partial sequence of dihydrofolate reductase (DHFR) and a luminescent (HiBiT) tag.
A fusion protein in which a partial sequence of DHFR and a HiBiT tag were linked in this order was designed. Gly-Gly-Ser was inserted as a spacer between the partial sequence of DHFR and the HiBiT tag. The amino acid sequences of these fusion proteins are set forth in SEQ ID NOs: 113 and 114, and these fusion proteins are a fusion protein (80 amino acid length) of the amino acids ranging to the amino acid at position 66 from the N-terminal of DHFR with a HiBiT tag and a fusion protein (100 amino acid length) of the amino acids ranging to the amino acid at position 86 from the N-terminal of DHFR with a HiBiT tag. The base sequences encoding these fusion proteins are SEQ ID NOs: 115 and 116.
A base sequence encoding a tagged fusion protein in which methionine, a VKKTKT tag (SEQ ID NO: 27) or a SKIK tag (SEQ ID NO: 107), and a fusion protein (any of SEQ ID NO: 113 or 114) were linked in this order was designed. In this base sequence, a base sequence (SEQ ID NO: 73 or 110) encoding a VKKTKT tag or a SKIK tag is arranged immediately after the start codon ATG, and a base sequence (any of SEQ ID NO: 115 or 116) encoding a fusion protein is arranged immediately after the base sequence encoding the VKKTKT tag or the SKIK tag.
As a control example for evaluating the effect of the VKKTKT tag or the SKIK tag, a base sequence in which a base sequence (any of SEQ ID NO: 115 or 116) encoding each of fusion protein arranged immediately after the start codon ATG was designed.
The fusion protein was expressed using a cell-free peptide synthesis system similar to the cell-free peptide synthesis system used in Example 1 by setting the incubation time of biosynthesis to 10 minutes. The obtained fusion protein was quantified using Nano Glo HiBiT Lytic Detection System (Promega, N3040). The measurement was performed twice, and the average value of the amounts of the fusion protein was calculated. […] The control example of the reference value 1 has a form in which the base sequence (SEQ ID NO: 115 or 116) encoding the fusion protein is arranged immediately after the start codon ATG.

The mark [3] stands for this setting: fusion protein SEQ ID NO 113, amino acid length 80, control without tag = 1.
Setting [4] is: fusion protein SEQ ID NO 114, amino acid length 100, control without tag = 1.

“SEQ ID NO: 27: VKKX tag, amino acid sequence VKKTKT (VKKX Tag)”: the “Biosynthesis amount of fusion protein” value came to 12.81 in assay [1], 1.67 in assay [2] (setting [3]) and 1.24 in assay [2] (setting [4]).
Turning to “SEQ ID NO: 107: tag consisting of an amino acid sequence of SKIK, disclosed in WO2016/204198A; comparative control (SKIK Tag) [reference compound]”, the “Biosynthesis amount of fusion protein” value in assay [1] amounted to 1.27; in assay [2] (setting [3]), 1.13; in assay [2] (setting [4]), 0.73. In assay [1] (text of Example 3, incubation time of biosynthesis reaction 10 minutes), the “increase rate of expression level of the fusion protein” value is reported as 1.3 times.
